Data from patent publication US20080318943A1, “Compounds and Uses Thereof - 848” (ASTRAZENECA AB, priority 2007, published 2008).

Experiments:
[1] = target: T1, GABAA receptor α2β3γ2 (Homo sapiens, UniProt P18507+P47869); experiment: Two-electrode voltage-clamp potentiation of GABA EC10 current in Xenopus oocytes, GABAA2; format: cell-based; conditions: percentage potentiation of GABA EC10 current divided by that of diazepam
T1 construct: expressed in transfected cells; host or cells: Xenopus laevis oocytes injected with cRNA
How it was run: (§1)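 Human GABAA receptors expressed in Xenopus oocytes by cRNA injection (α:β:γ molar ratio ~1:1:10 for α1β2γ2, 1:1:1 for α2β3γ2), recorded 2-10 days later by two-electrode voltage clamp at −60 mV in ND-96, pH 7.5. Modulator preapplied 30 s before GABA at per-oocyte EC10. Peak-current percent potentiation over GABA alone, normalised to diazepam.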

[2] = target: T2, GABAA receptor α1β2γ2 (Homo sapiens, UniProt P14867+P18507); experiment: Two-electrode voltage-clamp potentiation of GABA EC10 current in Xenopus oocytes, GABAA1; format: cell-based; conditions: percentage potentiation of GABA EC10 current divided by that of diazepam
T2 construct: expressed in transfected cells; host or cells: Xenopus laevis oocytes injected with cRNA
How it was run: as §1

[3] = target: T3, GABAA2 receptors (α2, β3, γ2 receptor subunits transfected into Sf9 cells) (Homo sapiens, UniProt P18507+P47869); experiment: GABAA2 Binding Method ([3H]-Flunitrazepam displacement); conditions: [3H]-Flunitrazepam ~2 nM, α2β3γ2 Sf9 membranes, 1 hr at 4° C.
T3 construct: host or cells: Sf9 cells (membranes)
How it was run: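 Displacement of [3H]-flunitrazepam (~2 nM in assay) from recombinant human α2β3γ2 receptors in Sf9 membranes; 1 h incubation at 4 °C, harvest by filtration. Values reported as percent of control, IC50 and Ki.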

[4] = listed as 9-amino-2-cyclobutyl-5-(2-fluoro-6-methoxyphenyl)-2,3-dihydro-1H-pyrrolo[3,4-b]q

T2 sequence (P14867 28-456): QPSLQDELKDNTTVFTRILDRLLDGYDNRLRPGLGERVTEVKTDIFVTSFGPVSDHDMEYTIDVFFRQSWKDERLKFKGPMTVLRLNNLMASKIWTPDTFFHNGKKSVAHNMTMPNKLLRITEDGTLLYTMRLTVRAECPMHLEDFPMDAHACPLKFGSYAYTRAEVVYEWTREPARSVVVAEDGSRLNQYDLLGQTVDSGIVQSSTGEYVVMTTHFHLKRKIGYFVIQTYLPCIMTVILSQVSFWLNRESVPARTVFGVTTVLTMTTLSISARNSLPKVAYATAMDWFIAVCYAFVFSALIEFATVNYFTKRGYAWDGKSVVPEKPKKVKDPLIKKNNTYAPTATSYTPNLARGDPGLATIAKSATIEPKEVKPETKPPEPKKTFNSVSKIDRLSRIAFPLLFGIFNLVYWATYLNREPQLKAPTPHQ
T2 sequence (P47870 25-512 partner limits assumed): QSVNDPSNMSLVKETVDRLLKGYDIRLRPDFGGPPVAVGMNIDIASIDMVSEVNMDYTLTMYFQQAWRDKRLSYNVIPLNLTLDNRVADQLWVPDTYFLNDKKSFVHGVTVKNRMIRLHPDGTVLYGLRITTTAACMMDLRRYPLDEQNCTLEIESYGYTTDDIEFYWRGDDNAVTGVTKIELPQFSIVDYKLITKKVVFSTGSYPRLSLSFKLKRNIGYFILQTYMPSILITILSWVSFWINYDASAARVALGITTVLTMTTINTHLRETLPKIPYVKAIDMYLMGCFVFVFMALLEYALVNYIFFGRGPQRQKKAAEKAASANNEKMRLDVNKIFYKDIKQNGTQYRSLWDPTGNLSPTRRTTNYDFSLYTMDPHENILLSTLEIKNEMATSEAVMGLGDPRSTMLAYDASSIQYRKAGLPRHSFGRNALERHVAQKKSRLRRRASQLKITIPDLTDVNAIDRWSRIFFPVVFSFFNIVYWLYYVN
T2 sequence (P18507 40-475): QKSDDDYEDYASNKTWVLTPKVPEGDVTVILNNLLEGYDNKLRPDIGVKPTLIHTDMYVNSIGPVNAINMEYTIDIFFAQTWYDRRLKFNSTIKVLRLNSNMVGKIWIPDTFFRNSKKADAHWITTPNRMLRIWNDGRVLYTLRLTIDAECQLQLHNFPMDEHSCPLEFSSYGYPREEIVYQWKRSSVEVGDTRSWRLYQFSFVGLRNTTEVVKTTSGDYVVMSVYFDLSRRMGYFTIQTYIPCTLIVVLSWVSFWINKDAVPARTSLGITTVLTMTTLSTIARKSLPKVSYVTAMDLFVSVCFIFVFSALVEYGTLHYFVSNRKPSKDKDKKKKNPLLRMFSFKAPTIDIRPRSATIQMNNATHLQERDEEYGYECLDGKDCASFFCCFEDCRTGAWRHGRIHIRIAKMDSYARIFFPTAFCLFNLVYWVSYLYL
T3 sequence (P47869 29-451): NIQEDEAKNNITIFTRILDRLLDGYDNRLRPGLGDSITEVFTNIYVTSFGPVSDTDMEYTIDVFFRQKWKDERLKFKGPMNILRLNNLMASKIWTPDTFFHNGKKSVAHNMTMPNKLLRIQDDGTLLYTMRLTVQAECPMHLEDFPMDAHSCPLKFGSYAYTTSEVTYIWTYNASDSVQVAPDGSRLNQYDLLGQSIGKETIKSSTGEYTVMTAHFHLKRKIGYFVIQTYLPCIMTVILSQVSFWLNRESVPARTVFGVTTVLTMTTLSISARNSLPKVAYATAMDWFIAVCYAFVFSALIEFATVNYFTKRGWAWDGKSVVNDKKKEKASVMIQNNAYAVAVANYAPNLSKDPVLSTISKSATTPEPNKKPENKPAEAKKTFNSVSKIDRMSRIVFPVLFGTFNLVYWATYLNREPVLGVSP
T3 sequence (P28472 26-473 partner): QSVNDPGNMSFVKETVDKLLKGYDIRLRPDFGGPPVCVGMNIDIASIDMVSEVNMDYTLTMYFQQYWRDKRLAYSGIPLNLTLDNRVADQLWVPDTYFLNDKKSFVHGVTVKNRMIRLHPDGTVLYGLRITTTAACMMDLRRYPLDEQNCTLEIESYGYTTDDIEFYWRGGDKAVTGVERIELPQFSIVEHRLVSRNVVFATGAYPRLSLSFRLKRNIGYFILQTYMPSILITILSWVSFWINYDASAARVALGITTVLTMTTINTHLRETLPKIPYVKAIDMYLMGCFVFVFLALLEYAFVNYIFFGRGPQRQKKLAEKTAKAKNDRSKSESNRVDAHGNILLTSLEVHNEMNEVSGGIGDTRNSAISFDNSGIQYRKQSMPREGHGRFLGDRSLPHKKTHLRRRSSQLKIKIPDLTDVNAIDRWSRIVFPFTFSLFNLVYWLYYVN
T3 sequence (P18507 40-475): as the sequence (P18507 40-475) above
T1 sequence (P47869 29-451): as the sequence (P47869 29-451) above
T1 sequence (P28472 26-473 partner): as the sequence (P28472 26-473 partner) above
T1 sequence (P18507 40-475): as the sequence (P18507 40-475) above

| SMILES | Relative Potentiation for GABAA2 [1] | Relative Potentiation for GABAA1 [2] | Ki [3] | Relative Potentiation for GABAA2 [1, 4] | Relative Potentiation for GABAA1 [2, 4] |
| --- | --- | --- | --- | --- | --- |
| COc1ccc(OC)c(CN2Cc3nc4c(-c5cnccc5OC)cccc4c(N)c3C2=O)c1 [Example 39, 9-Amino-2-(2,5-dimethoxybenzyl)-5-(4-methoxypyridin-3-yl)-2,3-dihydropyrrolo[3,4-b]quinolin-1-one] | 0.26 | 0.18 | 5.11 nM | – | – |
| CCCN1Cc2nc3c(-c4ccccc4C#N)cccc3c(N)c2C1=O [2-(9-amino-1-oxo-2-propyl-2,3-dihydro-1H-pyrrolo[3,4-b]quinolin-5-yl)benzonitrile] | 0.21 | 0.15 | 30.7 nM | – | – |
| CCCN1Cc2nc3c(-c4ccc(C)nc4)cccc3c(N)c2C1=O [Example 10, 9-Amino-5-(6-methylpyridin-3-yl)-2-propyl-2,3-dihydropyrrolo[3,4-b]quinolin-1-one] | 0.19 | 0.092 | 92.2 nM | – | – |
| CCCN1Cc2nc3c(-c4cc(C)cnc4Cl)cccc3c(N)c2C1=O [9-amino-5-(2-chloro-5-methylpyridin-3-yl)-2-propyl-2,3-dihydro-1H-pyrrolo[3,4-b]quinolin-1-one] | 0.61 | 0.44 | 6.63 nM | – | – |
| COc1ncccc1-c1cccc2c(N)c3c(nc12)CN(C1CC1)C3=O [Example 66, 9-Amino-2-cyclopropyl-5-(2-methoxypyridin-3-yl)-2,3-dihydropyrrolo[3,4-b]quinolin-1-one] | 0.33 | 0.056 | 35.1 nM | – | – |
| COc1cnc(OC)c(-c2cccc3c(N)c4c(nc23)CN(C2CCC2)C4=O)c1 [9-Amino-2-cyclobutyl-5-(2,5-dimethoxypyridin-3-yl)-2,3-dihydropyrrolo[3,4-b]quinolin-1-one] | 0.47 | 0.087 | 3.35 nM | – | – |
| CCCN1Cc2nc3c(-c4cc(F)ccc4F)cccc3c(N)c2C1=O [9-amino-5-(2,5-difluorophenyl)-2-propyl-2,3-dihydro-1H-pyrrolo[3,4-b]quinolin-1-one] | 0.33 | 0.21 | 34.8 nM | – | – |
| Nc1c2c(nc3c(-c4ccc(F)nc4F)cccc13)CN(C1CCC1)C2=O [9-Amino-2-cyclobutyl-5-(2,6-difluoropyridin-3-yl)-2,3-dihydropyrrolo[3,4-b]quinolin-1-one] | 0.21 | 0.033 | 0.732 nM | – | – |
| N#Cc1ccccc1-c1cccc2c(N)c3c(nc12)CN(C1CCC1)C3=O [Example 76, 2-(9-Amino-2-cyclobutyl-1-oxo-2,3-dihydro-1H-pyrrolo[3,4-b]quinolin-5-yl)benzonitrile] | 0.12 | −0.036 | 0.973 nM | – | – |
| CCN1Cc2nc3c(-c4ccccc4C#N)cccc3c(N)c2C1=O [Example 25, 2-(9-Amino-2-ethyl-1-oxo-2,3-dihydro-1H-pyrrolo[3,4-b]quinolin-5-yl)-benzonitrile] | 0.17 | −0.11 | 14.1 nM | – | – |
| Cc1ccncc1-c1cccc2c(N)c3c(nc12)CN(C1CCC1)C3=O [9-Amino-2-cyclobutyl-5-(4-methylpyridin-3-yl)-2,3-dihydropyrrolo[3,4-b]quinolin-1-one] | 0.13 | 0.017 | 1.1 nM | – | – |
| COc1cccc(F)c1-c1cccc2c(N)c3c(nc12)CN(C1CCC1)C3=O [Example 18, 9-Amino-2-cyclobutyl-5-(2-fluoro-6-methoxyphenyl)-2,3-dihydropyrrolo[3,4-b]quinolin-1-one] | – | – | 1.62 nM | 0.2 | −0.07 |
| COc1ccc(F)c(-c2c(F)ccc3c(N)c4c(nc23)CN(C2CCC2)C4=O)c1 [9-Amino-2-cyclobutyl-6-fluoro-5-(2-fluoro-5-methoxyphenyl)-2,3-dihydropyrrolo[3,4-b]quinolin-1-one] | 0.26 | 0.025 | 0.333 nM | – | – |
| CCN1Cc2nc3c(-c4ccc(OC)cc4OC)c(F)ccc3c(N)c2C1=O [9-Amino-5-(2,4-dimethoxy-phenyl)-2-ethyl-6-fluoro-2,3-dihydropyrrolo[3,4-b]quinolin-1-one] | 0.11 | 0.072 | 4.84 nM | – | – |
| COc1cccc(-c2c(F)ccc3c(N)c4c(nc23)CN(C2CCC2)C4=O)c1F [9-Amino-2-cyclobutyl-6-fluoro-5-(2-fluoro-3-methoxyphenyl)-2,3-dihydropyrrolo[3,4-b]quinolin-1-one] | 0.18 | 0.028 | 0.122 nM | – | – |
| COc1ccc(C)cc1-c1cccc2c(N)c3c(nc12)CN(Cc1ccc2c(c1)OCO2)C3=O [Example 14, 9-Amino-2-benzo[1,3]dioxol-5-ylmethyl-5-(2-methoxy-5-methylphenyl)-2,3-dihydropyrrolo[3,4-b]quinolin-1-one] | 0.37 | 0.22 | 15.5 nM | – | – |
| COc1ccccc1-c1c(F)ccc2c(N)c3c(nc12)CN(C1CCC1)C3=O [9-Amino-2-cyclobutyl-6-fluoro-5-(2-methoxyphenyl)-2,3-dihydropyrrolo[3,4-b]quinolin-1-one] | 0.2 | −0.047 | 1.56 nM | – | – |
| COc1ncccc1-c1c(F)ccc2c(N)c3c(nc12)CN(C1CC1)C3=O [Example 38, 9-Amino-2-cyclopropyl-6-fluoro-5-(2-methoxypyridin-3-yl)-2,3-dihydropyrrolo[3,4-b]quinolin-1-one] | 0.26 | 0.11 | 2.59 nM | – | – |
| COc1ncccc1-c1c(F)ccc2c(N)c3c(nc12)CN(C1CCC1)C3=O [9-Amino-2-cyclobutyl-6-fluoro-5-(2-methoxypyridin-3-yl)-2,3-dihydropyrrolo[3,4-b]quinolin-1-one] | 0.28 | −0.01 | 0.847 nM | – | – |
| COc1ccc(-c2cccc3c(N)c4c(nc23)CN([C@H]2C[C@@H](C)C2)C4=O)c(C)n1 | 0.3 | 0.14 | 4.65 nM | – | – |
| COc1ccc(F)c(-c2c(F)ccc3c(N)c4c(nc23)CN(C2CC2)C4=O)c1 [9-Amino-2-cyclopropyl-6-fluoro-5-(2-fluoro-5-methoxyphenyl)-2,3-dihydropyrrolo[3,4-b]quinolin-1-one] | 0.15 | 0.002 | 7.54 nM | – | – |
| CCCN1Cc2nc3c(-c4ccc(OC)nc4OC)cccc3c(N)c2C1=O [Example 9, 9-Amino-5-(2,6-dimethoxypyridin-3-yl)-2-propyl-2,3-dihydropyrrolo[3,4-b]quinolin-1-one] | 0.31 | 0.068 | 28.1 nM | – | – |
| Cc1cccc(-c2cccc3c(N)c4c(nc23)C(O)N(C2CCC2)C4=O)n1 (stereo not drawn) [9-Amino-2-cyclobutyl-3-hydroxy-5-(6-methylpyridin-2-yl)-2,3-dihydropyrrolo[3,4-b]quinolin-1-one] | 0.1 | −0.052 | 7.62 nM | – | – |
| COc1ncccc1-c1cccc2c(N)c3c(nc12)CN([C@H]1C[C@@H](C)C1)C3=O | 0.51 | 0.085 | 1.29 nM | – | – |
| CCCN1Cc2nc3c(-c4c(F)cccc4F)cccc3c(N)c2C1=O [Example 56, 9-Amino-5-(2,6-difluorophenyl)-2-propyl-2,3-dihydro-pyrrolo[3,4-b]quinolin-1-one] | 0.24 | 0.083 | 4.98 nM | – | – |
| COc1ccc(-c2cccc3c(N)c4c(nc23)CN(C2CCC2)C4=O)c(OC)n1 [Example 64, 9-Amino-2-cyclobutyl-5-(2,6-dimethoxypyridin-3-yl)-2,3-dihydropyrrolo[3,4-b]quinolin-1-one] | 0.31 | 0.06 | 3.81 nM | – | – |
| N#Cc1ccccc1-c1cccc2c(N)c3c(nc12)CN(C1CCCC1)C3=O [2-(9-Amino-2-cyclopentyl-1-oxo-2,3-dihydro-1H-pyrrolo[3,4-b]quinolin-5-yl)-benzonitrile] | 0.27 | 0.062 | 5.75 nM | – | – |
| COc1ccc(-c2c(F)ccc3c(N)c4c(nc23)CN(C2CC2)C4=O)c(F)c1 [9-amino-2-cyclopropyl-6-fluoro-5-(2-fluoro-4-methoxyphenyl)-2,3-dihydro-1H-pyrrolo[3,4-b]quinolin-1-one] | 0.055 | −0.036 | 7.27 nM | – | – |
| CCN1Cc2nc3c(-c4ccc(OC)c(OC)c4)c(F)ccc3c(N)c2C1=O [Example 47, 9-Amino-5-(3,4-dimethoxyphenyl)-2-ethyl-6-fluoro-2,3-dihydropyrrolo[3,4-b]quinolin-1-one] | 0.27 | 0.068 | 4.52 nM | – | – |
